# Entries after “also recorded” stand apart in the source; their conditions may differ. Where no end group is shown, it is not given here.
# Key:
# RyR2 = RyR2 (Rattus norvegicus, UniProt B0LPN4); assay: HF647-DPc10 wash-in kinetics by FRET from F-FKBP (donor quench) in permeabilized myocytes; type: binding; set-up: These fluorescent proteins were added to saponin-permeabilized myocytes with or without pre-equilibration with saturating DPc10 concentration; endogenous in cells; host or cells: saponin-permeabilized rat ventricular myocytes; settings: for effect on rate of HF647-DPc10 binding (τwash-in): H2O2 50 μmol/L pre-incubation, dantrolene 1 μmol/L in H2O2-treated myocytes
# Experimental: The FRET pair we used in this consisted of ALEXA FLUOR™ 488 (donor) covalently attached to FKBP12.6 (F-FKBP) and HiLyte Fluor™647 (acceptor) covalently attached to DPc10 (F-DPc10).^8 To detect F-DPc10 specifically bound to RyR2, we measured donor fluorescence intensities through a 500-530 nm bandpass filter before and after equilibration with acceptor (donor quenching method). The FRET efficiency (E) was calculated according to: E=1-FDA/FD, Where FD and FDA are the fluorescence intensities of the donor-only and donor-plus-acceptor samples, respectively (Oda et al., Circ Res. 2013;112:487-497). Statistics
# Next we tested whether RyR2 oxidation would increase HF647-DPc10 access. Here, we used FRET between F-FKBP as a donor and HF647-DPc10 as an acceptor, to detect DPc10 that specifically binds at RyR2 (Oda et al., Circ Res. 2013; 112:487-497).
# [1] = system: rat intact cardiomyocytes; assay: Ca2+ sparks and SR Ca2+ content in intact cardiomyocytes; type: cell-based; settings: for Ca2+ spark Amplitude (ΔF/F0) / Ca2+ spark FDHM / Ca2+ spark FWHM: H2O2 50 μmol/L, dantrolene 1 μmol/L
# Experimental: Intact cardiomyocytes were loaded with Fluo-4 AM (5 μmol/L, Molecular Probes) for 15 min in NT solution (in mM): NaCl 140, KCl 4, MgCl2 1, CaCl2 2, glucose 10, HEPES 5, pH 7.4. Fluo-4 AM was excited at 488 nm and emission was recorded using a 500-530 nm bandpass filter. Ca^2+sparks were recorded after field stimulation at 1 Hz, and caffeine (10mmol/L) was rapidly perfused for assessing the SR Ca^2+content. Both Ca^2+sparks and SR Ca^2+content were recorded by using a laser scanning confocal microscope (RADIANCE2000™ MP, Bio-Rad, UK). Data were analyzed using SparkMaster, an automated analysis program that allows rapid and reliable spark analysis (Picht et al., J. Am J Physiol Cell Physiol. 2007;293:C1073-C1081). Spontaneous Ca^2+waves were recorded using a BZ9000 fluorescence digital microscope (Keyence, Japan), after 10 sec from field electric stimulation at 1,2,3,4 and 5 Hz, as described previously (Fukuda et al., Biochem Biophys Res Commun. 2014;448:1-7).
# Oxidation induced by hydrogen peroxide (H2O2) is expected to activate SR Ca^2+ leak through RyR2 at diastolic [Ca]i (Wagner et al., Circ Res. 2011; 108:555-65; Yan et al., Cardiovasc Res. 2008; 77:432-41). We used line-scan images to measure the effects of 50 μM/L H2O2 on Ca^2+ spark frequency (CaSpF) and SR Ca^2+ content (evaluated via rapid caffeine application) in intact cardiomyocytes after 1 Hz electric field stimulation (FIG. 25). […] Thus H2O2 may enhance diastolic RyR2 channel opening. […] So CaSpF normalized to SR Ca^2+ content, was significant increase by H2O2 treatment of myocytes (FIG. 25C).
# [2] = system: permeabilized cardiomyocytes; assay: Ca2+ sparks and SR Ca2+ content in permeabilized myocytes; type: cell-based, rat
# Experimental: Myocytes were permeabilized with saponin (50μg/mL) for 60 seconds and placed in internal solution composed of EGTA 0.5 mmol/L; HEPES 10 mmol/L; Kaspartate 120 mmol/L; ATP 5 mmol/L; free MgCl2 1 mmol/L, reduced glutathione 10 mmol/L; and free [Ca2+] 50nmol/L (calculated using MaxChelator), creatine phosphokinase 5 U/mL, phosphocreatine 10 mmol/L, dextran 4% Fluo-4 0.025 mmol/L, pH 7.2. Ca2+sparks were recorded by a laser scanning confocal microscope (RADIANCE2000™ MP, Bio-Rad, UK) as previously described (Li et al., Circ Res, 2002; 90:309-316). Fluo-4 was excited at 488 nm and emission was recorded using 500/530 nm bandpass filter. To assess SR Ca2+content, caffeine (15 mmol/L) was rapidly perfused. Ca2+spark were analyzed as using SparkMaster (Picht et al., Am J Physiol Cell Physiol, 2007; 293:C1073-C1081).
# Next, we asked whether RyR2 is activated by DPc10 and whether FKBP12.6 or CaM can prevent this. We assessed Ca^2+ sparks in permeabilized myocytes perfused with internal solution containing 50 nmol/L free Ca^2+ plus 1 μmol/L autocamtide-2-related inhibitory peptide (to inhibit CaMKII activity). Line-scan images were recorded after 3-hour incubations under control conditions and in the presence of 5 μmol/L DPc10, with or without 1 μmol/L CaM or 100 nmol/L FKBP12.6 (FIG. 14D).
# [3] = DPc10 5 μmol/L, FKBP12.6 100 nmol/L, CaM 1 μmol/L
# Chain of RyR2 (B0LPN4 whole entry): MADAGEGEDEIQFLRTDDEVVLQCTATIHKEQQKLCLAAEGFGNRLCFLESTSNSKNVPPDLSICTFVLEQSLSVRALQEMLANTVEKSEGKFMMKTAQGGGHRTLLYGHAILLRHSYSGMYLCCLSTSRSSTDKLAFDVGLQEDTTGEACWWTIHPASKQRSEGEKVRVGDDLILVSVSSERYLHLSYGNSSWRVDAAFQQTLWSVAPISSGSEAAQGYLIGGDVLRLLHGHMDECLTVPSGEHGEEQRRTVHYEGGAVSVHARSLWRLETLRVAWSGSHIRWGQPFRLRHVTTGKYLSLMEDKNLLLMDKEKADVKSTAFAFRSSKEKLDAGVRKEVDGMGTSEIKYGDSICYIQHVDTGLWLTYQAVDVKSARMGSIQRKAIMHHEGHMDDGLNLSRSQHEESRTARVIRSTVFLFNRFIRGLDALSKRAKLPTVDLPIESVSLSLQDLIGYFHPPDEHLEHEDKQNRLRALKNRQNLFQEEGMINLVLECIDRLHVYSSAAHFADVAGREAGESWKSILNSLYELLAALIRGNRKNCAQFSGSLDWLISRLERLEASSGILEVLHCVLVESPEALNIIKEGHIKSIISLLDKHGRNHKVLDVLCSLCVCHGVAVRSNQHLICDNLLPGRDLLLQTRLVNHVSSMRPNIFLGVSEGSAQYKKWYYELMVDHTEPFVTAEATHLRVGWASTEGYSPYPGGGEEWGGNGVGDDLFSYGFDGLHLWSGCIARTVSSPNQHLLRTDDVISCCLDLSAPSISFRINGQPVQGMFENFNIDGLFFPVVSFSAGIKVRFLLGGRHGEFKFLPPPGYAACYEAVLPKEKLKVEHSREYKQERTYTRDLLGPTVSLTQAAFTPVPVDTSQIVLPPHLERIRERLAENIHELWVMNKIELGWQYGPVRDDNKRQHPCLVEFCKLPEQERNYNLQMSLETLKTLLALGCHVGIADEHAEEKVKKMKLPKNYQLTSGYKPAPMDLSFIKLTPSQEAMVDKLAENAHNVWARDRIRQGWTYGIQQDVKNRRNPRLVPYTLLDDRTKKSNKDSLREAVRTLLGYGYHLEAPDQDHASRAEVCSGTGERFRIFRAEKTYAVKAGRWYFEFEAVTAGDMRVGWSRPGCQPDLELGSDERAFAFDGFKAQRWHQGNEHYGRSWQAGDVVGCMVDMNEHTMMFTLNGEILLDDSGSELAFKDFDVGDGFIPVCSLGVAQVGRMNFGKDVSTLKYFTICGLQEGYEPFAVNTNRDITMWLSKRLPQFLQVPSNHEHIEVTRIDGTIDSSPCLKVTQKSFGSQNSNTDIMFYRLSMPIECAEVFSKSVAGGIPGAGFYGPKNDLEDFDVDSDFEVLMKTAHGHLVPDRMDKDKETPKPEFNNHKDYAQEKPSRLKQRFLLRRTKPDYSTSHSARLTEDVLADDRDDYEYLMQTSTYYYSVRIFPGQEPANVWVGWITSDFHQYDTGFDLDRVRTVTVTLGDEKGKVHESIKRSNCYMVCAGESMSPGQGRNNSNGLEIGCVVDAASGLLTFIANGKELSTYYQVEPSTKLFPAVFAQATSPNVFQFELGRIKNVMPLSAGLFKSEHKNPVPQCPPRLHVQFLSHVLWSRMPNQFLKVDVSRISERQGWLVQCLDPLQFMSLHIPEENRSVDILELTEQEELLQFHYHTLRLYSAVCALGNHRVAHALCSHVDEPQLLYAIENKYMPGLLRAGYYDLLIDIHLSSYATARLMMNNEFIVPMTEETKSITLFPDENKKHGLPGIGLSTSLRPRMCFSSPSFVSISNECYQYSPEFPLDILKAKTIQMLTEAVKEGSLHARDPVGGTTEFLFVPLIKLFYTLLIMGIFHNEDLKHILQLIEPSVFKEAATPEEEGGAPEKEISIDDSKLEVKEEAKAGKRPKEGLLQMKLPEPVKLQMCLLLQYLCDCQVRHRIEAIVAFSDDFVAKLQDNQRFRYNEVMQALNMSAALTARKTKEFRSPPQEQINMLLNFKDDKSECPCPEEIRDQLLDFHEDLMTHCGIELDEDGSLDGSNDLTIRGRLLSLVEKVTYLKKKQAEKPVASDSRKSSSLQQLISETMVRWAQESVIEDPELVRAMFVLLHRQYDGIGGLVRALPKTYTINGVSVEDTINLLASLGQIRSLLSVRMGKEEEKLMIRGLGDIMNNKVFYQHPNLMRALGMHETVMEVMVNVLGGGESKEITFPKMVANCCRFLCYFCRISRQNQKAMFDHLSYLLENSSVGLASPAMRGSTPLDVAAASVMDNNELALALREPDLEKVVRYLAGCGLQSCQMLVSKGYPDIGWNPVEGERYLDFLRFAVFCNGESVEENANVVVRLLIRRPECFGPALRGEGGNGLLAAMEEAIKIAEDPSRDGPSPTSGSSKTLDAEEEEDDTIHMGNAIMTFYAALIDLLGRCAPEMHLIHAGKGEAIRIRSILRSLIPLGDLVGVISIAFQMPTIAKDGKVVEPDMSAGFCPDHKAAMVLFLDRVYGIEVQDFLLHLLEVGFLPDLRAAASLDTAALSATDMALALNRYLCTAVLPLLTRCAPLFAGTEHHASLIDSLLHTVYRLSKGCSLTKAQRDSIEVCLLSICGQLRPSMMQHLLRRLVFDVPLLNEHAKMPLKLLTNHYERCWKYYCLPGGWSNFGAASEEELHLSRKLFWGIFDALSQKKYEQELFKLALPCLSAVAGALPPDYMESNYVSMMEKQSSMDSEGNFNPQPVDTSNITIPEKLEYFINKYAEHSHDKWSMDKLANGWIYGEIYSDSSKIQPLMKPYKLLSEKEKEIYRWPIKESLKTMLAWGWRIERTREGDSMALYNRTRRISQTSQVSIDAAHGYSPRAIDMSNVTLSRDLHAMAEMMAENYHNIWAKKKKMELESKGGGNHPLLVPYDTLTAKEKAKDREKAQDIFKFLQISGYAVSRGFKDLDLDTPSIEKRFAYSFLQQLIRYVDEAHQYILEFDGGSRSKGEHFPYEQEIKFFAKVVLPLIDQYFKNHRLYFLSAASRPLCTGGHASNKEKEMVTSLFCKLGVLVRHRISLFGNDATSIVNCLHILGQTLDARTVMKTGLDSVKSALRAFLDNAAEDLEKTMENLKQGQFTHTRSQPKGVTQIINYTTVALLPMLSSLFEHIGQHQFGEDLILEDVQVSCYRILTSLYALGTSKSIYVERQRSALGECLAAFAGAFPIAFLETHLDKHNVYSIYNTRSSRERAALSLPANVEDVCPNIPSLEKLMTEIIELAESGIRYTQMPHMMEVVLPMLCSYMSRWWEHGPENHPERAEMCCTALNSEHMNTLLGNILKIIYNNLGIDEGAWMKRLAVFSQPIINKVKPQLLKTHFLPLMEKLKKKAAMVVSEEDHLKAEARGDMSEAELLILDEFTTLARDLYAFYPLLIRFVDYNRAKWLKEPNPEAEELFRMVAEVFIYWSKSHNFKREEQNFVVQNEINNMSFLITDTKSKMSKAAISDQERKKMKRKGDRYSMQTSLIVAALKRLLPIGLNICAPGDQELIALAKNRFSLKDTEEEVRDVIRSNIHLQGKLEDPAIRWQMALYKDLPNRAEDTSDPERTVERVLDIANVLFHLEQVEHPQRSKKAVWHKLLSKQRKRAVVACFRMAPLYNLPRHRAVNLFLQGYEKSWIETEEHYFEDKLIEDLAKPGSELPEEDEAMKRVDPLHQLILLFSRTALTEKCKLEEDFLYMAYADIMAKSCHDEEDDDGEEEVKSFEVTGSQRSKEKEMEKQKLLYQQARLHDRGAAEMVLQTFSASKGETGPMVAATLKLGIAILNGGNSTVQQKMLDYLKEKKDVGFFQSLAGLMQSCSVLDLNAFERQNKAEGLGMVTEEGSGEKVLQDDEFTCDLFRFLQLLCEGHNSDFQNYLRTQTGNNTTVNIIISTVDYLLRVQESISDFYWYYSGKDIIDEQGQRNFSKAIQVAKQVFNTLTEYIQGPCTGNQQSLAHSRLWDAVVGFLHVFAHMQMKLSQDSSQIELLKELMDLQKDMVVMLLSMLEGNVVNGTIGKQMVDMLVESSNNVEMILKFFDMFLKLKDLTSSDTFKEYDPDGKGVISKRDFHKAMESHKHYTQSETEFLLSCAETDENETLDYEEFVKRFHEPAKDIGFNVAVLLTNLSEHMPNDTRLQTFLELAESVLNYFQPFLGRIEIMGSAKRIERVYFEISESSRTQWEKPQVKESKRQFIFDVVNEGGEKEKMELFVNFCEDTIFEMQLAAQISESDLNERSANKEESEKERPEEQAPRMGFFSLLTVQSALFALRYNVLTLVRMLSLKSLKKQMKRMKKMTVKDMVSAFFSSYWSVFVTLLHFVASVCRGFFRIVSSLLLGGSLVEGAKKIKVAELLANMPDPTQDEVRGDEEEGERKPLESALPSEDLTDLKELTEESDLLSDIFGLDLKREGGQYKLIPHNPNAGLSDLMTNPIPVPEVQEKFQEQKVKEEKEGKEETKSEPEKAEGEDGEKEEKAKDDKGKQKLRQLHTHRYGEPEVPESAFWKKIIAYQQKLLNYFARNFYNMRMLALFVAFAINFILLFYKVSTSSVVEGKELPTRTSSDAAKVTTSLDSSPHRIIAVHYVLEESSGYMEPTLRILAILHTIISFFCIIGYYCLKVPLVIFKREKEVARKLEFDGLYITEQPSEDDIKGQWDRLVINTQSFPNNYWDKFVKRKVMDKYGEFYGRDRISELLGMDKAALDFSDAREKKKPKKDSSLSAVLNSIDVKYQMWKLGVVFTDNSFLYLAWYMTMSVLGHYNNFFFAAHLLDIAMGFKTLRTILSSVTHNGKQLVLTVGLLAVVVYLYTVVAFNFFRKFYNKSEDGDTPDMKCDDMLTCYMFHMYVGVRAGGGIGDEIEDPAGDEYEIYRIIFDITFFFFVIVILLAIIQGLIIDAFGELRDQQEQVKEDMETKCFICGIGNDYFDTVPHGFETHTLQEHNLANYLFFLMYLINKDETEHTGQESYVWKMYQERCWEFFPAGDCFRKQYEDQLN
# Chain of RyR2 (P68106 with tags, fused parts or gaps T15C/C23A/C77I partner): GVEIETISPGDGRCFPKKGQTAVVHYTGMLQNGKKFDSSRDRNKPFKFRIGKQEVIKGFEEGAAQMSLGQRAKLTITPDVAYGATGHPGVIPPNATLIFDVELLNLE
Compound,effect on rate of HF647-DPc10 binding (τwash-in) (RyR2),faster τwash-in of F-DPc10 (RyR2; after H2O2 treatment),"CaSpF compared with control ([1]; 50 μM/L H2O2, after 1 Hz stimulation)",Ca2+ spark Amplitude (ΔF/F0) [1],Ca2+ spark FDHM [1],Ca2+ spark FWHM [1],SR Ca2+ content ([1]; intact myocytes),effect on maximal extent of quench (RyR2; dantrolene in H2O2-treated myocytes),effect on H2O2-induced increase in frequency of Ca2+ sparks ([1]; dantrolene added before H2O2),effect on control myocytes (Ca2+ sparks and SCW) ([1]; no H2O2),"Ca2+ spark frequency (CaSpF) vs control ([2]; 5 μmol/L DPc10, 3-hour incubation, 50 nmol/L free Ca2+, 1 μmol/L AIP)","Ca2+ spark FDHM [2, 3]","Ca2+ spark FWHM [2, 3]","Ca2+ spark Peak (F/F0) [2, 3]",SR Ca2+ content vs control (caffeine-induced Ca2+ release) ([2]; permeabilized myocytes)
"OO [H2O2, hydrogen peroxide]",significantly accelerated,50%,significantly increased,0.57 ± 0.01 ΔF/F0,67.05 ± 3.25 ms,2.04 ± 0.07 μm,did not significantly alter,,,,,,,,
O=C1CN(/N=C/c2ccc(-c3ccc([N+](=O)[O-])cc3)o2)C(O)=N1 [dantrolene],restored; also recorded: reversed,,,0.55 ± 0.01 ΔF/F0,61.98 ± 3.35 ms,1.93 ± 0.09 μm,,reduced,suppressed,had no effect,,,,,
GFCPDHKAAMVLFLDRVYGIEVQDFLLHLLEVGFLP [DPc10],,,,,,,,,,,robustly increased,58.5 ± 1.00 ms,1.34 ± 0.01 μm,0.475 ± 0.004 F/F0,significantly lower

# — patent US10281476B2, “Methods to identify modulators of RyR calcium channels” (REGENTS OF THE UNIVERSITY OF MINNESOTA, priority 2013, dated 2019)
